These results are taken from ChEMBL document CHEMBL1201862, “PubChem BioAssay data set” (2004).

Holding throughout (test): growth of human tumour cells (NCI), 48 h
The test system of experiment [1] is HT-29.
Experiment [2] concerns HOP-92.
Experiment [3] has as its system OVCAR-3.
In experiment [4] the test system is LOX IMVI.
Experiment [5] relates to 786-0.
The test system of experiment [6] is UACC-257.
The subject of experiment [7] is NCI-H522.
Experiment [8] has as its system MOLT-4.
In experiment [9] the test system is SF-295.
Experiment [10] has as its system U-251.
The test system of experiment [11] is EKVX.
Experiment [12] deals with HL-60.
Experiment [13] concerns UO-31.
Experiment [14] concerns M14.
Experiment [15] deals with HCT-15.
Experiment [16] relates to NCI-H460.
Experiment [17] concerns KM12.
For experiment [18], the system named is Hs-578T.
Experiment [19] relates to DU-145.

Molecules are shown by their SMILES.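 Method: 48-hour compound exposure of cells in 96-well plates, five concentrations, linear interpolation of endpoints. The concentration for 50% growth inhibition is given as GI50.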 The source made the active and inactive calls. No stated cut-off is given here; in the data, active = GI50 up to about 1.1 µM and inactive = higher.

Regarding `O=c1[nH]c(=O)n([C@@H]2C[C@H](CO)[C@H](O)C2)cc1/C=C/Br`, the GI50 in experiment [1], in [2], in experiment [3], in [4], in experiment [5] and in experiment [6] was > 100 µM (inactive) in each case. The GI50 in experiment [7], in [8], in experiment [9], in experiment [10], in experiment [11] and in [12] was > 100 µM (inactive) each time. For the same compound, the GI50 is > 100 µM (inactive) in [13]; > 100 µM (inactive) in [14]; over 100 µM in experiment [15]; > 100 µM (inactive) in experiment [16]; > 100 µM (inactive) in experiment [17].
On to `COc1cc2c(cc1OC)[C@@H]([C@H](O)c1ccccc1)NCC2`, for which the GI50 in [1] was > 100 µM (inactive); in [2], > 74.1 µM (inactive); in experiment [3], > 100 µM (inactive); in [4], > 100 µM (inactive); in [5], > 100 µM (inactive); in experiment [6], > 100 µM (inactive). For the same compound, the GI50 in experiment [7] was > 100 µM (inactive); in experiment [8] it was > 100 µM (inactive); in experiment [9] it was > 100 µM (inactive); in [10], > 100 µM (inactive); in [11], > 97.7 µM (inactive); in experiment [12], > 100 µM (inactive). The GI50 is > 92.7 µM (inactive) in [13]; > 100 µM (inactive) in experiment [14]; over 100 µM in experiment [15]; > 100 µM (inactive) in [16]; > 100 µM (inactive) in [17].
In the case of `NC1=NN(c2ccccc2)C(=O)C1C(=O)CCC(=O)Nc1cccc(Cl)c1` (stereo not given), the GI50 in experiment [1], in [2], in experiment [3], in experiment [4], in experiment [5] and in experiment [6] was > 100 µM (inactive) each time. Besides, the GI50 in experiment [7], in experiment [9], in [10], in experiment [11], in [12] and in experiment [13] was > 100 µM (inactive) in each case. Besides, the GI50 in [14] was > 100 µM (inactive); in experiment [15], over 100 µM; in experiment [16], > 100 µM (inactive); in experiment [17] it was > 100 µM (inactive).
`CCOc1ccc(/C(Cl)=C(\C=O)c2ccc(OC)c(OC)c2)cc1OCC`: the GI50 in experiment [1] was 41.1 µM (inactive); in experiment [2] it was 58.2 µM (inactive); in experiment [3] it was > 100 µM (inactive); in [4], 64.1 µM (inactive); in experiment [5], 64.9 µM (inactive); in experiment [6] it was 32.3 µM (inactive). Also, the GI50 is 18.2 µM (inactive) in experiment [7]; 27.9 µM (inactive) in [8]; 72.6 µM (inactive) in experiment [9]; 32.9 µM (inactive) in experiment [10]; 65.2 µM (inactive) in experiment [11]; 21.7 µM (inactive) in [12]. Further, the GI50 in experiment [13] was 53 µM (inactive); in [14], > 100 µM (inactive); in experiment [15] it was 28.3 µM; in [16], 83.4 µM (inactive); in experiment [17], 91.4 µM (inactive).
In the case of `O=c1cc(-c2ccccc2)nc(/C=C(\O)c2ccncc2)n1-c1ccccc1`, the GI50 in [1], in [2], in experiment [3], in experiment [4], in experiment [5] and in experiment [6] was > 100 µM (inactive) throughout. In addition, the GI50 in [7], in experiment [9], in [10], in experiment [11], in [12] and in experiment [13] was > 100 µM (inactive) throughout. Moreover, the GI50 is > 100 µM (inactive) in experiment [14], over 100 µM in experiment [15], > 100 µM (inactive) in experiment [16] and > 100 µM (inactive) in [17].
As to `CC(C)[C@H](COC(C)(C)C)/N=C/N1CSc2ccccc21`, the GI50 is 28.9 µM (inactive) in experiment [1]; 17.6 µM (inactive) in [2]; 23 µM (inactive) in [3]; 33.7 µM (inactive) in experiment [4]; 49.8 µM (inactive) in experiment [5]; 31.9 µM (inactive) in [7]. Further, the GI50 in experiment [8] is 36.1 µM (inactive); in experiment [9] it was 24.4 µM (inactive); in experiment [10], 32.5 µM (inactive); in [11], 44.1 µM (inactive); in experiment [12], 26.4 µM (inactive); in experiment [13], 96.2 µM (inactive). Also, the GI50 in experiment [14] is 36.3 µM (inactive); in experiment [15], 84.9 µM; in experiment [16], 33 µM (inactive); in experiment [17], 27.6 µM (inactive).
Take `COc1ccc(C(=O)Nc2ccc(S(=O)(=O)NCC(=O)O)cc2)cc1`: the GI50 in experiment [1], in experiment [2], in experiment [3], in experiment [4], in experiment [5] and in experiment [6] was > 100 µM (inactive) in each case. For the same compound, the GI50 in experiment [7], in experiment [8], in experiment [9], in experiment [10], in experiment [11] and in experiment [12] was > 100 µM (inactive) each time. For the same compound, the GI50 in [13] was > 100 µM (inactive); in experiment [14], > 100 µM (inactive); in experiment [15], over 100 µM; in experiment [16] it was > 100 µM (inactive); in experiment [17] it was > 100 µM (inactive).
`COC1CCC(OS(C)(=O)=O)C(CO)O1` (stereo not given): the GI50 in experiment [1], in experiment [2], in experiment [3], in [4], in experiment [5] and in [6] was > 100 µM (inactive) each time. Also, the GI50 in experiment [7], in [8], in experiment [9], in [10], in experiment [11] and in [12] was > 100 µM (inactive) in each case. For the same compound, the GI50 in experiment [13] is > 100 µM (inactive); in experiment [14], > 100 µM (inactive); in experiment [15], over 100 µM; in experiment [16], > 100 µM (inactive); in experiment [17], > 100 µM (inactive).
Turning to `COC(=O)C(Nc1ccc(OC)cc1)c1ccccc1` (stereo not given), the GI50 in experiment [1], in experiment [3], in experiment [4], in [5], in experiment [6] and in [7] was > 100 µM (inactive) in each case. The GI50 in experiment [8] is > 100 µM (inactive); in experiment [18] it was > 100 µM (inactive); in experiment [9], 89.3 µM (inactive); in experiment [11] it was > 100 µM (inactive); in experiment [13], > 100 µM (inactive); in experiment [14], > 100 µM (inactive). Further, the GI50 in experiment [15] was over 100 µM; in experiment [16] it was > 100 µM (inactive); in experiment [17] it was > 100 µM (inactive); in experiment [19], > 100 µM (inactive).
On to `CS/C(=N\c1ccccc1Cl)NC(=O)c1ccc(Br)cc1`, for which the GI50 in experiment [1] was > 100 µM (inactive); in [2], < 0.01 µM (active); in [3], > 100 µM (inactive); in experiment [4] it was > 100 µM (inactive); in [5] it was 27.1 µM (inactive); in experiment [6], > 100 µM (inactive). The GI50 in experiment [7] was 40.6 µM (inactive); in experiment [8], 18.5 µM (inactive); in experiment [9], 59.3 µM (inactive); in [10], 39.5 µM (inactive); in [11], > 100 µM (inactive); in experiment [12] it was 34 µM (inactive). Also, the GI50 in [13] was > 100 µM (inactive); in experiment [14] it was 24.6 µM (inactive); in experiment [15], over 100 µM; in experiment [16] it was > 100 µM (inactive); in experiment [17], > 100 µM (inactive).
As to `CCn1c(=O)c2nc(SC)sc2n(-c2ccccc2)c1=O`, the GI50 in experiment [1] was > 100 µM (inactive); in [2], 54.1 µM (inactive); in [3], > 100 µM (inactive); in [4], > 100 µM (inactive); in experiment [5] it was > 100 µM (inactive); in [6], > 100 µM (inactive). Also, the GI50 was > 100 µM (inactive) in [7]; > 100 µM (inactive) in [8]; > 100 µM (inactive) in experiment [9]; > 100 µM (inactive) in [10]; > 100 µM (inactive) in experiment [12]; 26 µM (inactive) in [13]. The GI50 in experiment [14] is > 100 µM (inactive); in experiment [15], over 100 µM; in experiment [16], > 100 µM (inactive); in experiment [17], > 100 µM (inactive); in [19], > 100 µM (inactive).
Turning to `Cc1ccccc1NC(=O)/C(=N\NC(N)=S)C(C#N)c1ccccc1` (stereo not given), the GI50 in [1], in experiment [2], in experiment [3], in [4], in experiment [5] and in experiment [6] was > 100 µM (inactive) throughout. Moreover, the GI50 in experiment [7], in [8], in experiment [9], in [10], in [11] and in [12] was > 100 µM (inactive) in each case. Further, the GI50 in [13] was > 100 µM (inactive); in experiment [14], > 100 µM (inactive); in experiment [15] it was over 100 µM; in [16] it was > 100 µM (inactive); in experiment [17] it was > 100 µM (inactive).
